Data on two molecules can be found in patent publication US8822691B2, “Pesticidal carboxamides” (Bayer CropScience AG, priority 2009, dated 2014).

Holding throughout (type): in vivo
Experiment [1] deals with Spodoptera litura. The experiment in a line: Test against tobacco cutworm (Spodoptera litura) larvae, leaf dip. The note with it: foliar, 168 h; active compound concentration of 100 ppm; third instar larvae on sweet potato leaves; after 7 days; read-out: insecticidal activity.
Experiment [2] deals with Tetranychus urticae. The experiment in a line: Test against two-spotted spider mite (Tetranychus urticae), spray. Particulars: Tetranychus urticae, 168 h; active compound concentration of 500 ppm; adult mites on kidney bean; after 7 days; read-out: acaricidal activity.
Experiment [3] relates to Aulacophora femoralis. The experiment in a line: Test against cucurbit leaf beetle (Aulacophora femoralis), leaf dip. The note with it: Aulacophora, foliar, 168 h; active compound concentration of 500 ppm; second instar larvae on cucumber leaves; after 7 days; read-out: insecticidal activity. The method, boiled down: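 Cucumber leaves dipped in compound solution (DMF/polyoxyethylene alkyl phenyl ether formulation diluted in water), air-dried and given five second-instar larvae on sterilized soil at 25 °C. Dead larvae counted after 7 days and expressed as % insecticidal activity.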

In experiment [4] the test system is Lucilia cuprina. The experiment in a line: Lucilia cuprina (48 h) larval test. Particulars: Lucilia cuprina, 48 h, read-out: activity (larval mortality). The procedure: Species: Lucilia cuprina 1st instar larvae (age 24 hrs)
(§1) Solvent: dimethyl sulfoxide
10 mg active compound are dissolve in 0.5 ml dimethyl sulfoxide. Serial dilutions are made to obtain the desired rates. Approximately 20 Lucilia cuprina 1st instar larvae are transferred into a test tube containing 1 cm^3 of minced horse meat and 0.5 ml aqueous dilution of test compound. After 48 hrs percentage of larval mortality are recorded. 100% efficacy all larvae are killed, % efficacy normally developed larvae after 48 hrs.

Experiment [5] deals with Ctenocephalides felis. Put plainly: Ctenocephalides felis-test (CTECFE). Particulars: Ctenocephalides felis, in Bos taurus, 48 h, read-out: activity (mortality), application rate of 100 ppm in cattle blood; adult unfed fleas; after 2 days. The procedure:
as §1
To produce a suitable preparation of active compound, 10 mg of active compound are dissolved in 0.5 ml solvent, and the concentrate is diluted with cattle blood to the desired concentration. Approximately 20 adult unfed (Ctenocepahlides felis) are placed in flea chambers. The blood chamber, sealed with parafilm on the bottom, are filled with cattle blood supplied with compound solution and placed on top of the flea chamber, so that the fleas are able to suck the blood. The blood chamber is heated to 37° C. whereas the flea chamber is kept at room temperature. After 2 days mortality in % is determined. 100% means that all the fleas have been killed; 0% means that none of the fleas have been killed.

Experiment [6] deals with Boophilus microplus. The experiment in a line: Boophilus microplus-test (injection). Particulars: Rhipicephalus microplus, 168 h, read-out: activity (mortality in %; 100% means that all eggs are infertile). The procedure: as §1
To produce a suitable preparation of active compound, 10 mg of active compound are dissolved in 0.5 ml solvent, and the concentrate is diluted with solvent to the desired concentration. Five adult engorged female ticks (Boophilus microplus) are injected with 1 μl compound solution into the abdomen. Ticks are transferred into replica plates and incubated in a climate chamber for a period of time. Egg deposition of fertile eggs is monitored.
After 7 days mortality in % is determined. 100% means that all eggs are infertile; 0% means that all eggs are fertile.

Experiment [7] has as its system Boophilus microplus. The experiment in a line: Boophilus microplus (dip). The note with it: Rhipicephalus microplus, 168 h, read-out: activity (mortality). Here is the method:
Solvent: Dimethylsulfoxid
To produce a suitable preparation of active compound, 10 mg of active compound are dissolved in 0.5 ml solvent, and the concentrate is diluted with water to the desired concentration. Eight to ten adult engorged female Boophilus microplus ticks are placed in perforated plastic beakers and immersed in aqueous compound solution for one minute. Ticks are transferred to a filter paper in a plastic tray. Egg deposition of fertile eggs is monitored after. After 7 days mortality in % is determined. 100% means that all the ticks have been killed; 0% means that none of the ticks have been killed.

The test system of experiment [8] is Musca domestica. The experiment in a line: Musca domestica-test. The note with it: Musca domestica, 48 h, read-out: activity (mortality). Here is the method: as §1
To produce a suitable preparation of active compound, 10 mg of active compound are dissolved in 0.5 ml solvent, and the concentrate is diluted with water to the desired concentration. Prior to the assay, a piece of kitchen sponge is soaked with a mixture of sugar and compound solution and placed into a container. 10 adults (Musca domestica) are placed into the container and closed with a perforated lid. After 2 days mortality in % is determined. 100% means that all the flies have been killed; 0% means that none of the flies have been killed.

For the molecule `N#Cc1ccc2cc(C(=O)Nc3c(I)cc(C(F)(C(F)(F)F)C(F)(F)C(F)(F)F)cc3OC(F)F)ccc2n1` (stereo not shown) [Compound No. 2-176, 2-cyano-N-[2-(difluoromethoxy)-6-iodo-4-(1,1,1,2,3,3,4,4,4-nonafluorobutan-2-yl)phenyl]quinoline-6-carboxamide], in experiment [1], the pest or weed control at 100 ppm is 100%. For the same molecule, the pest or weed control at 500 ppm in experiment [2] and in experiment [3] was 100% in each case. Also, the mortality – broadly, the percentage killed – at 100 ppm was 100% in experiment [4], 90% in experiment [5], 100% in experiment [7] and 100% in experiment [8]. Further, the mortality at 0.02 mg in experiment [6] turned out to be 100%.

Consider `N#Cc1ccc2cc(C(=O)Nc3c(Br)cc(C(F)(C(F)(F)F)C(F)(F)Br)cc3OC(F)F)ccc2n1` (stereo not shown) [Compound No. 2-203, N-[2-bromo-4-(1-bromo-1,1,2,3,3,3-hexafluoropropan-2-yl)-6-(difluoromethoxy)phenyl]-2-cyanoquinoline-6-carboxamide], for which the pest or weed control at 100 ppm in experiment [1] came out at 100%. Moreover, the pest or weed control at 500 ppm in experiment [2] and in experiment [3] was 100% in each case. Besides, the mortality at 100 ppm in experiment [4], in experiment [5], in experiment [7] and in experiment [8] was 100% each time. The mortality at 0.02 mg in experiment [6] came to 100%.
